This note sets out measurements from PubChem BioAssay (NCI).

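Briefly, cells in 96-well plates were exposed to five compound concentrations for 48 h, and endpoints were estimated by linear interpolation. The concentration for full growth arrest is given as TGI.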 Bounds are passed on as bounds.

Some test systems named below: NCI-H23 lung; OVCAR-8 ovarian; 786-0 renal; NCI-H460 lung; SNB-75 CNS; MCF7 breast; KM12 colon; MDA-N; MDA-MB-435; CAKI-1 renal; OVCAR-3 ovarian; K-562 leukemia; SNB-19 CNS; HCT-15 colon; M14 melanoma; SK-MEL-5 melanoma; BT-549 breast; MALME-3M melanoma; TK-10 renal; A498 renal.
Common to all, as to test: NCI anticancer screen, dose series, 48 h

Take `CCSC1=N/C(=C/c2ccccc2O)C(=O)N1`: the TGI in the experiment with NCI-H23 lung is more than 100 µM; with OVCAR-8 ovarian, more than 100 µM; in the experiment on 786-0 renal it was more than 100 µM; in the experiment on NCI-H460 lung, more than 100 µM; with SNB-75 CNS, 72.1 µM; with MCF7 breast, more than 100 µM. Moreover, the TGI in the experiment with KM12 colon, in the experiment on MDA-N, in the experiment with MDA-MB-435, with CAKI-1 renal, in the experiment on OVCAR-3 ovarian and with K-562 leukemia was more than 100 µM throughout. Also, the TGI in the experiment on SNB-19 CNS, in the experiment with HCT-15 colon, with M14 melanoma, in the experiment on SK-MEL-5 melanoma, with BT-549 breast and in the experiment on MALME-3M melanoma was more than 100 µM throughout.
Take `CCOC(=O)/C(C[C@H]1OC(C)(C)O[C@@H]1[C@H]1COC(C)(C)O1)=N/O`: the TGI with NCI-H23 lung, with OVCAR-8 ovarian, in the experiment with 786-0 renal, in the experiment on NCI-H460 lung, in the experiment on MCF7 breast and in the experiment on TK-10 renal was more than 100 µM in each case. The TGI with KM12 colon, in the experiment with MDA-N, in the experiment on MDA-MB-435, in the experiment with CAKI-1 renal, in the experiment with OVCAR-3 ovarian and in the experiment on K-562 leukemia was more than 100 µM throughout. Besides, the TGI in the experiment on SNB-19 CNS, in the experiment with HCT-15 colon, in the experiment on M14 melanoma, in the experiment on SK-MEL-5 melanoma, with BT-549 breast and with MALME-3M melanoma was more than 100 µM in each case. For the same compound, the TGI in the experiment with A498 renal is more than 100 µM.
As to `O=C(O)C1(Cc2ccc3c(c2)CCC3)Cc2ccccc2C1=O` (configuration not stated), the TGI in the experiment on NCI-H23 lung, in the experiment on OVCAR-8 ovarian, with 786-0 renal, in the experiment on NCI-H460 lung, in the experiment with SNB-75 CNS and with MCF7 breast was more than 100 µM each time. The TGI in the experiment on TK-10 renal, with KM12 colon, with MDA-N, with MDA-MB-435, in the experiment on OVCAR-3 ovarian and in the experiment on K-562 leukemia was more than 100 µM each time. In addition, the TGI in the experiment with SNB-19 CNS, in the experiment on HCT-15 colon, with M14 melanoma, in the experiment with SK-MEL-5 melanoma, in the experiment with BT-549 breast and with MALME-3M melanoma was more than 100 µM in each case. This compound showed a TGI with A498 renal of more than 100 µM.
Regarding `O=c1oc2ccccc2c(O)c1C(c1ccc2c(c1)Cc1ccccc1-2)c1c(O)c2ccccc2oc1=O`, the TGI in the experiment with NCI-H23 lung was 69.5 µM; in the experiment on OVCAR-8 ovarian it was more than 100 µM; in the experiment on 786-0 renal it was 66.9 µM; in the experiment on NCI-H460 lung it was 62.4 µM; in the experiment with SNB-75 CNS, more than 100 µM; in the experiment with MCF7 breast, 51.1 µM. For the same compound, the TGI was more than 100 µM in the experiment on TK-10 renal; 49.1 µM with KM12 colon; 36.7 µM in the experiment on MDA-N; 77.4 µM in the experiment with MDA-MB-435; 41.5 µM with CAKI-1 renal; more than 100 µM in the experiment on OVCAR-3 ovarian. Moreover, the TGI in the experiment on SNB-19 CNS is more than 100 µM; with HCT-15 colon, 57.2 µM; in the experiment on M14 melanoma it was 41 µM; in the experiment with SK-MEL-5 melanoma, 39.9 µM; with BT-549 breast it was 53.6 µM; in the experiment on MALME-3M melanoma it was 71.4 µM. In the experiment with A498 renal, the TGI is more than 100 µM.
Take `C[N+](C)(C)CC(=O)N/N=C(/CC1OC(=O)c2ccccc21)c1ccccc1O` (configuration not stated): the TGI is 85.4 µM in the experiment on NCI-H23 lung; 82 µM in the experiment with OVCAR-8 ovarian; 86.5 µM in the experiment with 786-0 renal; 70.9 µM with NCI-H460 lung; more than 100 µM in the experiment on SNB-75 CNS; more than 100 µM with MCF7 breast. The TGI in the experiment on TK-10 renal was more than 100 µM; in the experiment on KM12 colon, more than 100 µM; in the experiment with MDA-N it was more than 100 µM; in the experiment on MDA-MB-435, 97.8 µM; in the experiment with CAKI-1 renal, more than 100 µM; in the experiment with OVCAR-3 ovarian, more than 100 µM. Moreover, the TGI in the experiment with SNB-19 CNS is more than 100 µM; in the experiment on HCT-15 colon, more than 100 µM; in the experiment on M14 melanoma, more than 100 µM; in the experiment with SK-MEL-5 melanoma, more than 100 µM; in the experiment with BT-549 breast, 95.7 µM; in the experiment on MALME-3M melanoma it was more than 100 µM. The TGI in the experiment on A498 renal came out at 77.1 µM.
On to `CCNc1nc2c(ncn2C2CC(O)C(COP(=O)(O)O)O2)c(=O)[nH]1` (configuration not stated), for which the TGI in the experiment on NCI-H23 lung, in the experiment with OVCAR-8 ovarian, in the experiment with 786-0 renal, in the experiment on NCI-H460 lung, in the experiment with SNB-75 CNS and with MCF7 breast was more than 100 µM in each case. The TGI in the experiment with TK-10 renal, in the experiment on KM12 colon, in the experiment with MDA-N, in the experiment on MDA-MB-435, in the experiment with CAKI-1 renal and in the experiment with OVCAR-3 ovarian was more than 100 µM throughout. The TGI with SNB-19 CNS, in the experiment with HCT-15 colon, in the experiment on M14 melanoma, with SK-MEL-5 melanoma, in the experiment on BT-549 breast and with MALME-3M melanoma was more than 100 µM throughout. For the same compound, the TGI in the experiment on A498 renal is more than 100 µM.
As to `COC(=O)c1nc(-c2nc(CCNC(=O)OC(C)(C)C)sc2Cl)sc1Cl`, the TGI in the experiment with NCI-H23 lung, in the experiment on OVCAR-8 ovarian, in the experiment on 786-0 renal, in the experiment on NCI-H460 lung, with SNB-75 CNS and in the experiment with MCF7 breast was more than 100 µM throughout. Also, the TGI in the experiment on TK-10 renal, in the experiment with KM12 colon, in the experiment with MDA-N, in the experiment with MDA-MB-435, in the experiment on OVCAR-3 ovarian and with K-562 leukemia was more than 100 µM each time. Further, the TGI in the experiment on SNB-19 CNS, with HCT-15 colon, in the experiment on M14 melanoma, in the experiment on SK-MEL-5 melanoma, with BT-549 breast and in the experiment on MALME-3M melanoma was more than 100 µM in each case. The TGI in the experiment on A498 renal was more than 100 µM.
